We go through seven molecules from US20260078144A1, “ACTIVE PEPTIDE, AND COMPOSITION AND USE THEREOF” (WINKEY TECHNOLOGY USA INC, priority 2023, published 2026).

What all share (type): cell-based
Data set [1] has as its system Human skin fibroblasts (HSF). Description: Cell proliferation assay (MTT) on HSF cells. As to conditions: 72 h, FIG. 6. From the text:
(§1) Human skin fibroblasts (HSF) were purchased from the Shanghai Cell Bank of China Center for Type Culture Collection under the Chinese Academy of Sciences.
Polypeptide group: Peptide (26), peptide (33), peptide (39) and peptide (49). The test concentrations of all the above samples were 1 ppm, 10 ppm, 50 ppm, 100 ppm, 200 ppm, 500 ppm and 1000 ppm.
Blank control group: PBS.
Positive control group: 2% DMSO.
(§2) Cells in good exponential growth phase were taken. A 0.25% trypsin digestion solution was added so that digestion allowed the adherent cells to fall off, counting 1 to 4×10^5 cells/mL, which were prepared into a cell suspension.
The cell suspension was inoculated into a 96-well plate with 200 µL/well, and cultured in a constant-temperature CO2 incubator for 24 h. […]
20 μL of 5 mg/mL MTT was added to each well and the incubation was continued in the 5% CO2 incubator at 37° C. for 4 h. […] After shaking the plate on a plate shaker for 5 min, a microplate reader was used to determine the OD value of each well at a wavelength of 570 nm, and the cell viability was calculated.
The MTT assay is a method of detecting cell survival and growth. The measured OD values are directly proportional to cell viability. […]

Data set [2] relates to Human keratinocytes (HaCaT). Description: Photoaging experiment (UV-irradiated HaCaT, MTT). To be noted: 80 mJ/cm^2 UV, 24 h, compared with the UV group, FIG. 7. The method, then: (§3) Human keratinocytes (HaCaT) were purchased from the Kunming Cell Bank of China Center for Type Culture Collection under the Chinese Academy of Sciences.
Polypeptide group: Peptide (26), peptide (33), peptide (39) and peptide (49). The test concentrations of all the above samples were 1 ppm, 10 ppm, 50 ppm, 100 ppm, and 200 ppm.
as §2
The cell suspension was properly diluted and inoculated into a 96-well plate at 10,000 cells/well. When the cells reached approximately 80% confluence, a UV photoaging model was established. In the blank control group, 50 μL of PBS was added, and supplemented with the culture medium to 200 μL, while no UV irradiation was performed. For the UV group and the polypeptide groups, a proper amount of PBS was added to wash the culture repeatedly until colorless, followed by adding 50 μL of PBS and irradiating under an 80 mJ/cm^2 UV light. The distance between the light source and the culture bottle was 15 cm. After irradiation, the PBS was removed. In the UV group, a PBS solution and the culture medium were added to 200 μL; in the polypeptide groups, the culture medium and the samples diluted in a certain ratio were added to 200 μL. The blank control group, the UV group, and the polypeptide groups were further incubated in a 5% CO2 incubator at 37° C. for 24 h.
Then 22 μL of 5 mg/mL MTT was added to each well and the incubation was continued in the 5% CO2 incubator at 37° C. for 4 h. The original solution was removed and 150 µL/well of DMSO was added. After shaking the plate on a plate shaker for 5 min, a microplate reader was used to read the reference OD values at wavelengths of 490 nm and 630 nm.
Skin aging is affected by endogenous and exogenous factors, such as genetics, environmental exposure, UV irradiation, hormonal changes, etc. The accumulation of these factors, especially exposure to UV irradiation, leads to changes in structure, function and appearance of the skin. In this experiment, 80 mJ/cm^2 UV energy was selected for radiation to establish a skin photoaging model.

Data set [3] deals with Human keratinocytes (HaCaT). Description: Determination of hyaluronic acid content. As to conditions: 10 ppm, 48 h, compared with blank control group, FIG. 9. The method, then: as §3
Polypeptide group: Peptide (26), peptide (33), peptide (39) and peptide (49). The test concentrations of all the above samples were 10 ppm.
A bottle of HaCaT cells in good exponential growth phase was taken. A 0.25% trypsin digestion solution was added so that digestion allowed the adherent cells to fall off, counting 1 to 4×10^6 cells/mL, which were prepared into a cell suspension.
The cells were inoculated into a 6-well plate at 10^5 cells/well, and grouped when the cells reached approximately 80% confluence. […]
After completion of the culture, cells were scraped off using a cell scraper, and 200 μL of RIPA lysis buffer was added to extract proteins. […] The total protein concentration was quantified to 1 mg/mL using the BCA method. […] The OD value of each well was measured in sequence at 570 nm using a microplate reader within 15 min.
Hyaluronic acid is one of the main matrix ingredients of the human skin epidermis and an important component of the skin barrier. […] This experiment measured the effect of the peptide of the present invention on the hyaluronic acid content to determine whether the peptide of the invention can increase the hyaluronic acid content and thus play a role in moisturizing and anti-aging repair.

In data set [4] the test system is Human skin fibroblasts (HSF). Description: Collagen content assay (collagen I ELISA, UV photoaging model). As to conditions: 100 ppm, UV-irradiated HSF, 48 h, FIG. 10. The method, then:
as §1
Polypeptide group: Palmitoyl pentapeptide-4 (Palm-Lys-Thr-Thr-Lys-Ser-OH), peptide (26), peptide (32), peptide (33), peptide (39), and peptide (49), all at a test concentration of 100 ppm;
HSF cells in good exponential growth phase were taken. A 0.25% trypsin digestion solution was added so that digestion allowed the adherent cells to fall off, counting 1 to 4×10^6 cells/mL, which were prepared into a cell suspension.
The cell suspension was inoculated into a 6-well plate at 10^5 cells/well. A UV photoaging model was established when the cells reached approximately 80% confluence. In the blank control group, 200 μL of PBS was added, supplemented with the culture medium to 800 μL, while no UV irradiation was performed. For the UV group and the polypeptide groups, a proper amount of PBS was added to wash the culture repeatedly until colorless, followed by adding 200 μL of PBS and irradiating under an 80 mJ/cm^2 UV light. The distance between the light source and the culture bottle was 15 cm. After irradiation, the PBS was removed. In the UV group, a PBS solution and culture medium were added to 800 μL; in the polypeptide groups, the culture medium and the samples diluted in a certain ratio were added to 800 μL. The blank control group, the UV group, and the polypeptide groups were further incubated in a 5% CO2 incubator at 37° C. for 48 h.
After completion of the culture, the cells were scraped off using a cell scraper, mixed by pipetting, and the cell protein was extracted using RIPA and quantified to 1 mg/mL with BCA. The procedure was performed according to the operation instructions of collagen I ELISA. The OD value of each well was measured in sequence at 450 nm using a microplate reader within 15 min.
Collagen is the most abundant protein found in connective tissue, and provides plumpness and firmness to the skin. […] In this experiment, UV-irradiated cells were treated with test samples, and the content of collagen I in corresponding cells was detected to determine whether the peptide of the present invention can promote collagen synthesis.
(In general: An ELISA detects its analyte on a solid surface through an enzyme-linked reagent.)

Data set [5] has as its system Human keratinocytes (HaCaT). Description: Cell scratch assay. As to conditions: 24 h, FIG. 8; for order of effects on promoting the proliferation and migration of HaCaT cells: 50-100 ppm. The method, then: as §3
Polypeptide group: Peptide (26), peptide (33), peptide (39) and peptide (49). The test concentrations of all the above samples were 50 ppm and 100 ppm.
Positive control group: 50 U/mL of EGF.
A bottle of HaCaT cells in good exponential growth phase was taken. A 0.25% trypsin digestion solution was added so that digestion allowed the adherent cells to fall off, counting 1 to 4×10^5 cells/mL, which were prepared into a cell suspension.
The cells were inoculated into a 24-well plate at a density of 150,000 cells/well, with 2 mL cell suspension per well. After the cells attached to the wall and grew to 100% confluence, the culture medium was replaced with a medium containing 0.5%-1% fetal bovine serum to maintain the cells for 24 h for synchronization. A sterilized pipette tip was used to scratch a wound, the detached cells were washed off with PBS, and the samples to be tested were added. The incubation was continued in the 5% CO2 incubator at 37° C., and the migration of cells was observed under an optical microscope after 24 h.
The scratch migration experiment of cells can reflect the proliferation and repair ability of cells. A scratch assay was performed on the basis of HaCaT cells growing all over the dish, and the migration of cells was observed under an optical microscope 24 h after administration of the samples to evaluate the effect of the test samples on cell proliferation and migration.

As for `C[S+](C)[O-]` [DMSO, dimethyl sulfoxide, reference compound], the “HSF cell viability (positive control)” value in data set [1] (2% DMSO, compared with blank control group) is on record as “toxic effect on HSF cells”.
In the case of “Ac-Lys-Arg-Tyr-Gly-Trp-NH2 (Ac-KRYGW-NH2) [peptide (49)]”, the “activity of photoaged HaCaT keratinocytes” value in data set [2] (range of 1-200 ppm) was “improve the activity of HaCaT keratinocytes to different degrees”. Further, the hyaluronic acid content result in data set [3] is given as “more superior technical effects”. Moreover, the “collagen content (collagen I) compared with palmitoyl pentapeptide-4” value in data set [4] is listed as “more significantly increase the collagen content”. In addition, the “order of effects on promoting the proliferation and migration of HaCaT cells” value (from here on “order of effects”) in data set [5] is on record as “peptide (33)>peptide (26)>peptide (49)>peptide (39)”.
On to “Ac-Lys-Lys-Trp-Val-Thr-His-NH2 (Ac-KKWVTH-NH2) [peptide (39)]”, for which the “activity of photoaged HaCaT keratinocytes” value in data set [2] (at 1 ppm, 100 ppm and 200 ppm) was “improve cell activity”. Besides, in data set [1] (low concentration of 1-10 ppm), the “HSF cell activity / proliferation of HSF fibroblasts” value was “significantly increase cell activity and promote the proliferation of HSF fibroblasts”. Also, in data set [4], the “collagen content (collagen I) compared with palmitoyl pentapeptide-4” value is “more significantly increase the collagen content”. Further, in data set [5], the “order of effects” value is reported as “peptide (33)>peptide (26)>peptide (49)>peptide (39)”.
Consider “Ac-Lys-Pro-Leu-Trp-His-Val-NH2 (Ac-KPLWHV-NH2) [peptide (33)]”, for which the “activity of photoaged HaCaT keratinocytes” value in data set [2] (range of 1-200 ppm) is recorded as “improve the activity of HaCaT keratinocytes to different degrees”. Further, in data set [4], the “collagen content (collagen I) compared with palmitoyl pentapeptide-4” value is “more significantly increase the collagen content”. Moreover, the “order of effects” value in data set [5] is “peptide (33)>peptide (26)>peptide (49)>peptide (39)”.
“Ac-Lys-Pro-Leu-Trp-His-Val-OH (Ac-KPLWHV-OH) [peptide (32)]”: the “collagen content (collagen I) compared with palmitoyl pentapeptide-4” value in data set [4] was “more significantly increase the collagen content”.
Take “Ac-Tyr-Gly-Trp-Lys-Lys-Gln-NH2 (Ac-YGWKKQ-NH2) [peptide (26)]”: the “activity of photoaged HaCaT keratinocytes” value in data set [2] (range of 1-200 ppm) was “improve the activity of HaCaT keratinocytes to different degrees”. The hyaluronic acid content result in data set [3] was “more superior technical effects”. Also, the “collagen content (collagen I) compared with palmitoyl pentapeptide-4” value in data set [4] is reported as “more significantly increase the collagen content”. Further, the “order of effects” value in data set [5] is “peptide (33)>peptide (26)>peptide (49)>peptide (39)”.
“EGF: Positive control group: 50 U/mL of EGF [reference compound]”: the “cell proliferation and migration of HaCaT cells (positive control)” value in data set [5] (50 U/mL, compared with blank control group) was “obvious cell proliferation and migration”.
